# Earlier results as cited in US20240066097A1 (priority 2022, published 2024).
# What was measured:
# SARS coronaviruses [1] = test system: SARS coronaviruses
# SARS coronaviruses [2] = test system: SARS coronaviruses; remark: listed apart in the source
# [3] = in vivo
Molecule,IC50 (SARS coronaviruses [2]),further results
O=c1c(O)c(-c2ccc(O)c(O)c2)oc2cc(O)cc(O)c12 [Quercetin],7.19 to 60 µg/mL,EC50 level of the flavonol (SARS coronaviruses [1]): 60 µg/mL
O=c1c(O)c(-c2ccc(O)cc2)oc2cc(O)cc(O)c12 [Kaempferol],62.50 to 125.00 µg/mL,EC50 level of the flavonol (SARS coronaviruses [1]): 10 µg/mL
COc1ccc([C@@H]2CC(=O)c3c(O)cc(O)cc3O2)cc1O [Hesperetin],2.5 µg/mL,
"O=C(O[C@@H]1Cc2c(O)cc(O)cc2O[C@@H]1c1cc(O)c(O)c(O)c1)c1cc(O)c(O)c(O)c1 [EGCG, epigallocatechin gallate]",0.389 to 7.56 µg/mL,
MBL,,half life [3]: 3 to 7 days
O=c1c(O)c(-c2cc(O)c(O)c(O)c2)oc2cc(O)cc(O)c12 [Myricetin],0.86 µg/mL,
Oc1cc(O)c2c(c1)O[C@@]1(c3ccc(O)c(O)c3)Oc3cc(O)c4c(c3[C@@H]2[C@H]1O)O[C@H](c1ccc(O)c(O)c1)[C@H](O)[C@H]4c1c(O)cc(O)c2c1O[C@H](c1ccc(O)c(O)c1)[C@H](O)C2 [Cinnamtannin B1],28.4 µg/mL,
O=c1cc(-c2ccc(O)c(O)c2)oc2cc(O)cc(O)c12 [Luteolin],5.72 µg/mL,
[Ca+2] [calcium],,dietary calcium absorption: up to −50%
"Urtica dioica Agglutinin (UDA) (protein, UniProt P11218 24-372, looked up) Lectin/endochitinase 1: QRCGSQGGGGTCPALWCCSIWGWCGDSEPYCGRTCENKCWSGERSDHRCGAAVGNPPCGQDRCCSVHGWCGGGNDYCSGSKCQYRCSSSVRGPRVALSGNSTANSIGNVVVTEPLFDQMFSHRKDCPSQGFYSYHSFLVAAESFPAFGTIGDVATRKREVAAFLAHISQATSGERSDVENPHAWGLCHINTTTVTENDFCTSSDWPCAAGKKYSPRGPIQLTHNFNYGLAGQAIGEDLIQNPDLVEKDPIISFKTALWFWMSQHDNKPSCHDIVLNANSAANRIPNKGVIGNIISRAFGHDDFAVRSSSIGFYKRYCDMLGVSYGHDLKYWFDNTPSSEFQRIQMRVAA",,EC50 (SARS-CoV-1): 1.3 µg/mL
